Measurements from patent US20260184675A1, “CHIRAL ISOMERIC SULFITE COMPOUND AND APPLICATION THEREOF” (Chengdu Hanova BioSciences Co., Ltd, priority 2024, published 2026).

Columns and labels:
[1] = tested on: eggs of Thrips; test: Effect on hatching of eggs of Thrips, leaf disc method; assay type: in vivo; settings: 100 ppm; for Hatching rate (%): 5 days after insecticide delivery
How it was run: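 Thrip egg hatching was tested by the leaf disc method on Vicia faba discs 2.0 cm across, placed over wetted filter paper. Egg numbers on each disc were counted under a microscope before treatment. Discs were then dipped for 10 seconds in clean water or a compound solution at 100 ppm. They were kept moist under normal conditions, and hatching was surveyed five days after insecticide delivery.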

[2] = tested on: eggs of Panonychus citri; test: Effect on hatching of eggs of Panonychus citri, leaf disc method; assay type: in vivo; settings: 1 ppm; for Hatching rate (%), Replicate 1 / Hatching rate (%), Replicate 2 / Hatching rate (%), Replicate 3 / Number of hatched larvae 5 days after insecticide delivery, Replicate 1 / Number of hatched larvae 5 days after insecticide delivery, Replicate 2 / Number of hatched larvae 5 days after insecticide delivery, Replicate 3: Panonychus citri eggs; for Hatching rate (%), Replicate 1 / Hatching rate (%), Replicate 2 / Hatching rate (%), Replicate 3: 5 days after delivery; for Number of hatched larvae 5 days after insecticide delivery, Replicate 1 / Number of hatched larvae 5 days after insecticide delivery, Replicate 2 / Number of hatched larvae 5 days after insecticide delivery, Replicate 3: leaf disc
[3] = tested on: Magnaporthe grisea; assay type: cell-based; settings: 100 ppm; for Average antifungal rate (%) / Antifungal rate of Magnaporthe grisea (%), Replicate 1 / Antifungal rate of Magnaporthe grisea (%), Replicate 2 / Antifungal rate of Magnaporthe grisea (%), Replicate 3: 96-well plate; for Average antifungal rate (%): average of 3 replicates
[4] = tested on: eggs of Tetranychus urticae; test: Effect on hatching of eggs of Tetranychus urticae, leaf disc method; assay type: in vivo; settings: 5 ppm; for Hatching rate (%): 5 days after insecticide delivery
How it was run: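 Twenty adult female Tetranychus urticae mites were placed on 2.0 cm Vicia faba leaf discs over wetted filter paper in lidded dishes kept moist, and removed within 36 hours. Eggs on each disc were counted under a microscope. The egg-bearing discs were dipped for 10 seconds in a compound solution at 5 ppm or in clear water, then kept moist, and hatching was checked five days after treatment.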

[5] = tested on: eggs of Spodoptera litura; test: Effect on hatching of eggs of Spodoptera litura, egg piece soaking; assay type: in vivo; settings: Spodoptera litura eggs, 500 ppm; for Hatching rate (%), Replicate 1 / Hatching rate (%), Replicate 2 / Hatching rate (%), Replicate 3: 4 days after delivery; for Number of unhatched larvae 4 days after insecticide delivery, Replicate 1 / Number of unhatched larvae 4 days after insecticide delivery, Replicate 2 / Number of unhatched larvae 4 days after insecticide delivery, Replicate 3: soaked 10 minutes
How it was run: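 Egg pieces of about 60 eggs were soaked 10 min in test agent at 500 ppm, blotted, then held singly at 24±1 °C, 80±10% RH, 12:12 L:D. Hatched and unhatched eggs were counted on day 4 to give hatching rate and control effect; 3 replicates.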

CC(C)(COS(=O)OCCF)Oc1ccc(Cl)cc1Cl (stereo not drawn) [Compound 10′]
inhibitory activity on the hatching of eggs of Thrips (in words) [1]: strong inhibitory activities
Hatching rate (%) ([1]; Replicate 1): 0.00%
Hatching rate (%) ([1]; Replicate 2): 1.55%
Hatching rate (%) ([1]; Replicate 3): 0.00%
Number of hatched larvae 5 days after insecticide delivery ([1]; Replicate 1): 0
Number of hatched larvae 5 days after insecticide delivery ([1]; Replicate 2): 2
Number of hatched larvae 5 days after insecticide delivery ([1]; Replicate 3): 0
inhibitory effect on the hatching of eggs of Panonychus citri (in words) [2]: good inhibitory effects
Hatching rate (%), Replicate 1 [2]: 0.00%
Hatching rate (%), Replicate 2 [2]: 0.73%
Hatching rate (%), Replicate 3 [2]: 0.92%
Number of hatched larvae 5 days after insecticide delivery, Replicate 1 [2]: 0
Number of hatched larvae 5 days after insecticide delivery, Replicate 2 [2]: 1
Number of hatched larvae 5 days after insecticide delivery, Replicate 3 [2]: 1
inhibitory rate against Magnaporthe grisea (in words) [3]: strong inhibitory rate
Average antifungal rate (%) [3]: 94.31%
Antifungal rate of Magnaporthe grisea (%), Replicate 1 [3]: 94.01%
Antifungal rate of Magnaporthe grisea (%), Replicate 2 [3]: 95.16%
Antifungal rate of Magnaporthe grisea (%), Replicate 3 [3]: 93.77%
inhibitory activity on the hatching of eggs of Tetranychus urticae (in words) [4]: strong inhibitory activities
Hatching rate (%) ([4]; Replicate 1): 1.18%
Hatching rate (%) ([4]; Replicate 2): 1.10%
Number of hatched larvae 5 days after insecticide delivery ([4]; Replicate 1): 1
Number of hatched larvae 5 days after insecticide delivery ([4]; Replicate 2): 1
Hatching rate (%), Replicate 1 [5]: 40.63%
Hatching rate (%), Replicate 2 [5]: 41.94%
Hatching rate (%), Replicate 3 [5]: 42.37%
Number of unhatched larvae 4 days after insecticide delivery, Replicate 1 [5]: 38
Number of unhatched larvae 4 days after insecticide delivery, Replicate 2 [5]: 36
Number of unhatched larvae 4 days after insecticide delivery, Replicate 3 [5]: 34

CCC(COc1ccc(Cl)cc1Cl)OS(=O)OCCF (stereo not drawn) [Compound 19]
inhibitory activity on the hatching of eggs of Thrips (in words) [1]: strong inhibitory activities
Hatching rate (%) ([1]; Replicate 1): 0.00%
Hatching rate (%) ([1]; Replicate 2): 0.83%
Hatching rate (%) ([1]; Replicate 3): 0.00%
Number of hatched larvae 5 days after insecticide delivery ([1]; Replicate 1): 0
Number of hatched larvae 5 days after insecticide delivery ([1]; Replicate 2): 1
Number of hatched larvae 5 days after insecticide delivery ([1]; Replicate 3): 0
inhibitory effect on the hatching of eggs of Panonychus citri (in words) [2]: good inhibitory effects
Hatching rate (%), Replicate 1 [2]: 0.00%
Hatching rate (%), Replicate 2 [2]: 0.00%
Hatching rate (%), Replicate 3 [2]: 0.00%
Number of hatched larvae 5 days after insecticide delivery, Replicate 1 [2]: 0
Number of hatched larvae 5 days after insecticide delivery, Replicate 2 [2]: 0
Number of hatched larvae 5 days after insecticide delivery, Replicate 3 [2]: 0
inhibitory rate against Magnaporthe grisea (in words) [3]: strong inhibitory rate
Average antifungal rate (%) [3]: 95.57%
Antifungal rate of Magnaporthe grisea (%), Replicate 1 [3]: 97.23%
Antifungal rate of Magnaporthe grisea (%), Replicate 2 [3]: 95.14%
Antifungal rate of Magnaporthe grisea (%), Replicate 3 [3]: 94.35%
inhibitory activity on the hatching of eggs of Tetranychus urticae (in words) [4]: strong inhibitory activities
Hatching rate (%) ([4]; Replicate 1): 0.00%
Hatching rate (%) ([4]; Replicate 2): 1.09%
Number of hatched larvae 5 days after insecticide delivery ([4]; Replicate 1): 0
Number of hatched larvae 5 days after insecticide delivery ([4]; Replicate 2): 1
Hatching rate (%), Replicate 1 [5]: 29.41%
Hatching rate (%), Replicate 2 [5]: 30.16%
Hatching rate (%), Replicate 3 [5]: 29.82%
Number of unhatched larvae 4 days after insecticide delivery, Replicate 1 [5]: 36
Number of unhatched larvae 4 days after insecticide delivery, Replicate 2 [5]: 44
Number of unhatched larvae 4 days after insecticide delivery, Replicate 3 [5]: 40

CCC(COS(=O)OCCF)Oc1ccc(Cl)cc1Cl (stereo not drawn) [Compound 19′]
inhibitory activity on the hatching of eggs of Thrips (in words) [1]: strong inhibitory activities
Hatching rate (%) ([1]; Replicate 1): 0.95%
Hatching rate (%) ([1]; Replicate 2): 1.15%
Hatching rate (%) ([1]; Replicate 3): 0.00%
Number of hatched larvae 5 days after insecticide delivery ([1]; Replicate 1): 1
Number of hatched larvae 5 days after insecticide delivery ([1]; Replicate 2): 1
Number of hatched larvae 5 days after insecticide delivery ([1]; Replicate 3): 0
inhibitory effect on the hatching of eggs of Panonychus citri (in words) [2]: good inhibitory effects
Hatching rate (%), Replicate 1 [2]: 0.00%
Hatching rate (%), Replicate 2 [2]: 0.00%
Hatching rate (%), Replicate 3 [2]: 0.00%
Number of hatched larvae 5 days after insecticide delivery, Replicate 1 [2]: 0
Number of hatched larvae 5 days after insecticide delivery, Replicate 2 [2]: 0
Number of hatched larvae 5 days after insecticide delivery, Replicate 3 [2]: 0
inhibitory rate against Magnaporthe grisea (in words) [3]: strong inhibitory rate
Average antifungal rate (%) [3]: 92.59%
Antifungal rate of Magnaporthe grisea (%), Replicate 1 [3]: 91.33%
Antifungal rate of Magnaporthe grisea (%), Replicate 2 [3]: 93.48%
Antifungal rate of Magnaporthe grisea (%), Replicate 3 [3]: 92.95%
inhibitory activity on the hatching of eggs of Tetranychus urticae (in words) [4]: strong inhibitory activities
Hatching rate (%) ([4]; Replicate 1): 1.14%
Hatching rate (%) ([4]; Replicate 2): 1.92%
Number of hatched larvae 5 days after insecticide delivery ([4]; Replicate 1): 1
Number of hatched larvae 5 days after insecticide delivery ([4]; Replicate 2): 2
Hatching rate (%), Replicate 1 [5]: 32.76%
Hatching rate (%), Replicate 2 [5]: 32.14%
Hatching rate (%), Replicate 3 [5]: 35.94%
Number of unhatched larvae 4 days after insecticide delivery, Replicate 1 [5]: 39
Number of unhatched larvae 4 days after insecticide delivery, Replicate 2 [5]: 38
Number of unhatched larvae 4 days after insecticide delivery, Replicate 3 [5]: 41

CC(C)(COc1ccc(Cl)cc1Cl)OS(=O)OCCF (stereo not drawn) [Compound R-10]
Hatching rate (%) ([1]; Replicate 1): 15.31%
Hatching rate (%) ([1]; Replicate 2): 14.50%
Hatching rate (%) ([1]; Replicate 3): 14.53%
Number of hatched larvae 5 days after insecticide delivery ([1]; Replicate 1): 15
Number of hatched larvae 5 days after insecticide delivery ([1]; Replicate 2): 19
Number of hatched larvae 5 days after insecticide delivery ([1]; Replicate 3): 17
Hatching rate (%), Replicate 1 [2]: 9.65%
Hatching rate (%), Replicate 2 [2]: 9.78%
Hatching rate (%), Replicate 3 [2]: 10.37%
Number of hatched larvae 5 days after insecticide delivery, Replicate 1 [2]: 11
Number of hatched larvae 5 days after insecticide delivery, Replicate 2 [2]: 9
Number of hatched larvae 5 days after insecticide delivery, Replicate 3 [2]: 14
inhibitory rate against Magnaporthe grisea (in words) [3]: strong inhibitory rate
Average antifungal rate (%) [3]: 82.52%
Antifungal rate of Magnaporthe grisea (%), Replicate 1 [3]: 81.97%
Antifungal rate of Magnaporthe grisea (%), Replicate 2 [3]: 83.68%
Antifungal rate of Magnaporthe grisea (%), Replicate 3 [3]: 81.92%
Hatching rate (%) ([4]; Replicate 1): 18.06%
Hatching rate (%) ([4]; Replicate 2): 16.13%
Number of hatched larvae 5 days after insecticide delivery ([4]; Replicate 1): 13
Number of hatched larvae 5 days after insecticide delivery ([4]; Replicate 2): 15
Hatching rate (%), Replicate 1 [5]: 60.87%
Hatching rate (%), Replicate 2 [5]: 64.15%
Hatching rate (%), Replicate 3 [5]: 62.07%
Number of unhatched larvae 4 days after insecticide delivery, Replicate 1 [5]: 27
Number of unhatched larvae 4 days after insecticide delivery, Replicate 2 [5]: 19
Number of unhatched larvae 4 days after insecticide delivery, Replicate 3 [5]: 22
